Measured values as given in patent US12156922B2, “Copper-containing complex and uses thereof” (Bar-Ilan University, priority 2017, dated 2024).

Experiments:
Ctr1 = target: T1, Ctr1 (Homo sapiens, UniProt O15431, DEL121-121); test: EPR of Cu(II) coordination after exposure of complex to purified Ctr1; format: binding; conditions: 120 K, 0.5 mM
T1 construct: intein (cleaved yes); made in house; host or cells: Escherichia coli BL21 (DE3)
T1 sequence (O15431 with tags, fused parts or gaps DEL121-121): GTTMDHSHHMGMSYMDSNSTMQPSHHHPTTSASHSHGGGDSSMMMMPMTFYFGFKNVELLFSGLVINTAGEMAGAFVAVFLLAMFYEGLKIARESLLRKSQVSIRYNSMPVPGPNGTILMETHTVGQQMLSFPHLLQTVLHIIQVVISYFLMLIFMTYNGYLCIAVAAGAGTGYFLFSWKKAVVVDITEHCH
Description: Human Ctr1 (hCtr1) was obtained by expression and purification of a protein (SEQ ID NO: 43), using a pYTB12-hCTR1 plasmid, in which the full length hCTR1 sequence was cloned into the pYTB12 plasmid. This construct encodes for a fusion protein composed of hCTR1, intein, and a chitin-binding domain. The plasmid was transformed into the Escherichia coli strain BL21 (DE3).
In order to assess the behavior of a Cu(II)-ligand-peptide complex under physiological conditions, the coordination of Cu(II) was investigated by EPR spectroscopy following exposure of a Cu(II)-IDA-Met1 complex (prepared as described in Example 2) to the copper transporter Ctr1 (in a purified state), which plays a central role in the cellular copper cycle. For comparison, the behavior of Cu(II)-IDA (without a peptide) was also investigated under such conditions. EPR spectra were interpreted by comparison to simulated spectra prepared using the EasySpin™ computational package.

DA3 breast cancer cells = test: Cu(I) levels in cells by bicinchoninic acid (BCA) absorption at 562 nm; format: cell-based
Experimental: The interaction between cells and Cu(II)-ligand-peptide complexes under various conditions was investigated by contacting DA3 breast cancer cells with a Cu(II)-IDA-Cys1 complex (prepared as described in Example 2) or with CuCl2 as a control. The concentration of reduced copper (Cu(I)) was then determined by complexation with bicinchoninic acid (BCA) and evaluating the concentration of BCA-Cu(I) by measuring absorption at a wavelength of 562 nm.

[1] = UV-visible spectrophotometry of Tyr-peptide binding to Cu(II), absorption at 276 nm
Experimental: In order to compare affinity of peptides to Cu(II)-ligand-peptide complexes, UV-visible spectrophotometry was used to assess the degree of incorporation of Cys1-Tyr (SEQ ID NO: 51) and Met1-Tyr (SEQ ID NO: 50) peptides into Cu(II)-containing complexes, at various concentrations of Cu(II), IDA and peptide. The spectrophotometry focused on changes in Tyr residue absorption at about 276 nm. […]
In addition, 1 mM of peptide (16.6 μl) with 1 mM CuCl2 (12.5 μl) in ultrapure water (258.4 μl) was titrated with various concentrations (ranging from 0.25 to 1 mM or 0.25 to 1.25 mM) of IDA.

Compound: O=C([O-])CNCC(=O)[O-].[Cu+2] [Cu(II)-IDA]
- coordination of Cu(II) in the presence of Ctr1 (Ctr1): becomes coordinated to the Ctr1

Compound: [Cl][Cu][Cl] [free Cu(II) ions, CuCl2]
- time for which Cu(I) concentration in cells is maintained (DA3 breast cancer cells; 1.5 mM): depleted from the cell within several hours
- Cu(I) ions in cells, hypoxic vs normoxic conditions (DA3 breast cancer cells; 1.5 mM, 2, 6 or 24 hours after exposure): more Cu(I) ions are observed in cells under hypoxic conditions than under normoxic conditions
- entry of copper into cells in the presence of Ag(I) ions, a Ctr1 inhibitor (DA3 breast cancer cells; 3 mM Ag(I) ions, 1.5 mM copper species): not blocked

Compound: KSMAACAM (Cys1 peptide sequence)
- affinity to Cu(II), comparison of peptides ([1]; from Cys1-Tyr and Met1-Tyr titrations): considerably stronger affinity to Cu(II) than does Met1

Compound: MYGMKGMSY [Met1-Tyr]
- IDA-dependent change in absorption at 276 nm ([1]; 1 mM peptide, 1 mM CuCl2, titrated with IDA): larger IDA-dependent change in absorption than did Cys1-Tyr
